Data reported in patent US20260132123A1, “ABAD INHIBITOR COMPOUNDS” (UNIVERSITY COURT OF THE UNIVERSITY OF ST ANDREWS, priority 2021, published 2026).

Legend:
[1] = test system: mtsABAD HEK293 cells; assay: Lactate dehydrogenase (LDH) cytotoxicity assay; assay type: cell-based, human; settings: 50 μM compound
Procedure: Cell cytotoxicity was assessed via the measurement of lactate dehydrogenase leakage into the culture medium using a commercially available kit from Pierce (Thermo Scientific cat no. 88953). This was carried out in accordance with the kit guidelines, with the activity of Lactate Dehydrogenase (LDH) being calculated from the change in absorbance at […] as NADH is reduced. HEK293 cells overexpressing mts17β-HSD10 were cultured in phenol-red free media (10% fetal bovine serum (FBS), 1 mM sodium pyruvate, 100 units penicillin, 0.1 mg/mL streptomycin and 2 mM L-glutamine) and seeded at a density of 10,000 cells per well (100 μL, 96 well plates). […] Treated cells were incubated at 37° C. and CO2 (5%) for 24 hours before the LDH assay was performed as per the manufacturer's instructions. Spontaneous control (water) and maximum control (lysis buffer) used in accordance with the kit guide. Absorbance was measured at 490 nm and 680 nm using a SpectraMaxM2e spectrophotometer. The measured LDH activity was used to calculate % cytotoxicity using the following equation: […]

[2] = test system: mtsABAD HEK293 cells; assay: Alamar Blue cell viability assay; assay type: cell-based, human; settings: 50 μM compound
Procedure: Cell viability was assessed via fluorescence change using the commercially available Alamar Blue from ThermoFisher. HEK293 cells overexpressing mts17β-HSD10 were cultured in phenol-red free media (10% FBS, 1 mM sodium pyruvate, 100 units penicillin, 0.1 mg/mL streptomycin and 2 mM L-glutamine) and seeded at a density of 10,000 cells per well (100 μL, 96 well plates). […] Treated cells were then incubated at 37° C. and CO2 (5%) for 24 hours before the assay was performed as per the manufacturer's instructions. Fluorescence was measured at 530 nm excitation and 590 nm emission using a SpectraMaxM2e spectrophotometer.

[3] = molecular target: T1, 17β-HSD10 (Homo sapiens, UniProt Q99714); assay: 17β-HSD10 (ABAD) enzyme inhibition assay, NADH oxidation read at 340 nm (primary screen and dose response); assay type: biochemical; settings: for Max. Effect (%) / Hill Slope / Max. Fit / Min. Fit / EC50: recombinant 17βHSD10 enzyme assay; for Hill Slope / Max. Fit / Min. Fit: curve fit
T1 construct: Histev (histidine tag with TEV site) (N, cleaved yes); made in house; host or cells: E. coli BL21-CodonPlus
T1 sequence (Q99714 1-261): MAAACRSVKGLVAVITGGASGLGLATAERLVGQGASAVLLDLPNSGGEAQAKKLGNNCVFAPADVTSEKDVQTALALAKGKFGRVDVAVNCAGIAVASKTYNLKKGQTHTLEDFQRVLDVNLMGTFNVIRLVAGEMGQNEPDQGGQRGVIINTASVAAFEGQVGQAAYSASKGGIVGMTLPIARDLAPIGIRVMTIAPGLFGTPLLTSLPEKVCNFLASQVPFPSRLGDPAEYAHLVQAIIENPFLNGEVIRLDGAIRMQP
In short: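 Screening used a 35 min room-temperature endpoint A340 read after compound (10 μM) and enzyme (2.5 nM, E. coli-expressed, His-tag removed) preincubated 15 min, then 100 μM NADH plus acetoacetyl-CoA added. Dose-response runs tracked absorbance kinetically 45 min; buffer pH 7.4 Tris with BSA, DTT.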

| SMILES | Max. Effect (%) [3] [%] | Hill Slope [3] | Max. Fit [3] | Min. Fit [3] | EC50 [3] [nM] | fold less potent than ESC1002033 [3] | IC50 ([3]; 17β-HSD10 dose response / inhibition assay, read-out: 17β-HSD10 pIC50 (converted)) [nM] | LDH % Toxicity (50 μM Dose) ([1]; listed as ESC1002205-01) [%] | Alamar Blue % Viability (50 μM Dose) ([2]; listed as ESC1002205-01) [%] | LDH % Toxicity (50 μM Dose) [1] [%] | Alamar Blue % Viability (50 μM Dose) [2] [%] | LDH % Toxicity (50 μM Dose) ([1]; listed as ESC1002203-01) [%] | Alamar Blue % Viability (50 μM Dose) ([2]; listed as ESC1002203-01) [%] | 17β-HSD10 / ABAD activity in words (SAR discussion) [3] |
| --- | --- | --- | --- | --- | --- | --- | --- | --- | --- | --- | --- | --- | --- | --- |
| CC(C)CN(C(=O)c1ccccc1F)c1cccc(N(C)Cc2ccn[nH]2)c1 [ESC1002205] | 96 | 1.1 | 97 | 0 | – | – | – | 5.840 | 95.933 | – | – | – | – | – |
| CCN(C(=O)c1ccccc1F)c1cccc(N(C)Cc2cnc[nH]2)c1 [ESC1002234, N-ethyl-2-fluoro-N-[3-[1H-imidazol-5-ylmethyl(methyl)amino]phenyl]benzamide] | 94 | 0.96 | 101 | −3 | 1480 | – | – | – | – | 4.81 | 86.98 | – | – | – |
| Cc1ncc(CN(C)c2cccc(N(CC(C)C)C(=O)c3ccccc3F)c2)[nH]1 [ESC1002203] | 97 | 1.1 | 98 | 0 | 525 | approximately 3 fold | – | – | – | – | – | 6.638 | 87.491 | only slightly reduced ABAD inhibition levels |
| COCCN(C(=O)c1ccccc1F)c1cccc(N(C)Cc2cn(CCOC)cn2)c1 [ESC1002164, 2-fluoro-N-(2-methoxyethyl)-N-[3-[[1-(2-methoxyethyl)imidazol-4-yl]methyl-methylamino]phenyl]benzamide] | 2 | – | – | – | > 20000 | – | – | – | – | 5.093 | 77.951 | – | – | – |
| CC(C)CN(C(=O)c1ccccc1F)c1cccc(N(C)Cc2ccncc2)c1 [ESC1002211] | 40 | – | – | – | > 20000 | – | – | – | – | 5.501 | 82.553 | – | – | – |
| CC(C)CN(C(=O)c1cccc2ccccc12)c1cccc(N(C)Cc2cnc[nH]2)c1 [ESC1002172, N-[3-[1H-imidazol-5-ylmethyl(methyl)amino]phenyl]-N-isobutyl-naphthalene-1-carboxamide] | 87 | 1.1 | 96 | 0 | 2820 | – | – | – | – | 5.472 | 85.337 | – | – | – |
| CC(C)CN(C(=O)c1ccccc1F)c1cccc(N(C)Cc2cccnc2)c1 [ESC1002210] | 72 | 1.4 | 82 | 0 | 6170 | – | – | – | – | 5.509 | 93.200 | – | – | – |
| CC(C)CN(C(=O)c1ccccc1F)c1cccc(N(C)Cc2cn3ccccc3n2)c1 [ESC1002214] | 22 | – | – | – | > 20000 | – | – | – | – | 5.902 | 82.439 | – | – | – |
| CC(C)CN(C(=O)C1CCCCC1)c1cccc(N(C)Cc2cnc[nH]2)c1 [ESC1002166, N-[3-[1H-imidazol-5-ylmethyl(methyl)amino]phenyl]-N-isobutyl-cyclohexanecarboxamide] | 99 | 0.93 | 104 | 0 | 955 | – | – | – | – | 4.554 | 82.237 | – | – | less potent |
| Cc1n[nH]c(Cc2ccccc2)c1-c1ccccc1O [ESC1002170, 2-(5-benzyl-3-methyl-1H-pyrazol-4-yl) phenol] | 99 | 1.1 | 98 | 0 | 501 | – | – | – | – | 5.192 | 79.141 | – | – | – |
| CN(Cc1c[nH]cn1)c1cccc(N(CC2CCC2)C(=O)c2ccccc2F)c1 [ESC1002265] | 96 | 1.1 | 99 | 0 | 955 | – | – | – | – | 4.52 | 80.52 | – | – | – |
| CC(C)CN(C(=O)c1ccccc1F)c1ccc2c(c1)N(Cc1cnc[nH]1)CCC2 [ESC1002236, 2-fluoro-N-[1-(1H-imidazol-5-ylmethyl)-3,4-dihydro-2H-quinolin-7-yl]-N-isobutyl-benzamide] | 30 | – | – | – | > 20000 | – | – | – | – | 3.94 | 82.69 | – | – | – |
| CC(C)CN(C(=O)C(C)C)c1cccc(N(C)Cc2cnc[nH]2)c1 [ESC1002165, N-[3-[1H-imidazol-5-ylmethyl(methyl)amino]phenyl]-N-isobutyl-2-methyl-propanamide] | 94 | 1 | 100 | 0 | 1660 | – | – | – | – | 4.074 | 88.291 | – | – | – |
| COc1ccc(-c2ccccc2[C@H]2CCCN2C(=O)c2ccccc2F)cn1 (stereo in doubt) [ESC1002119, (2-fluorophenyl)-[2-[2-(6-methoxy-3-pyridyl)phenyl]pyrrolidin-1-yl]methanone] | 64 | 1.3 | 57 | 0 | 4170 | – | – | – | – | 4.780 | 79.180 | – | – | – |

The next lines start with results.

| Max. Effect (%) [3] [%] | Hill Slope [3] | Max. Fit [3] | Min. Fit [3] | EC50 [3] [nM] | fold less potent than ESC1002033 [3] | IC50 ([3]; 17β-HSD10 dose response / inhibition assay, read-out: 17β-HSD10 pIC50 (converted)) [nM] | SMILES | LDH % Toxicity (50 μM Dose) ([1]; listed as ESC1002205-01) [%] | Alamar Blue % Viability (50 μM Dose) ([2]; listed as ESC1002205-01) [%] | LDH % Toxicity (50 μM Dose) [1] [%] | Alamar Blue % Viability (50 μM Dose) [2] [%] | LDH % Toxicity (50 μM Dose) ([1]; listed as ESC1002203-01) [%] | Alamar Blue % Viability (50 μM Dose) ([2]; listed as ESC1002203-01) [%] | 17β-HSD10 / ABAD activity in words (SAR discussion) [3] |
| --- | --- | --- | --- | --- | --- | --- | --- | --- | --- | --- | --- | --- | --- | --- |
| 96 | 1 | 99 | 0 | 912 | – | – | Cc1ccsc1C(=O)N1CCC[C@H]1c1ccccc1-c1ccc(C(=O)N(C)C)cc1 [ESC1002317] | – | – | 4.58 | 83.39 | – | – | – |
| 91 | 0.87 | 102 | −6 | 1620 | – | – | Cc1ccsc1C(=O)N1CCC[C@H]1c1ccccc1-c1cnn(C2CCOCC2)c1 [ESC1002341] | – | – | 5.13 | 96.72 | – | – | – |
| 94 | 1.1 | 97 | 0 | 1150 | – | – | Cc1ccsc1C(=O)N1CCC[C@@H]1c1ccccc1-c1cccnc1 [ESC1002090] | – | – | 5.162 | 102.627 | – | – | – |
| 79 | 1 | 101 | −2 | 5890 | – | – | Cc1ccsc1C(=O)N1CCC[C@H]1c1ccccc1-c1ccc(S(C)(=O)=O)cc1 [ESC1002319] | – | – | 5.17 | 82.10 | – | – | – |
| 41 | – | – | – | > 20000 | – | – | Cc1ccsc1C(=O)N1CCC[C@H]1c1ccccc1-c1cccc(S(C)(=O)=O)c1 [ESC1002322] | – | – | 6.93 | 89.24 | – | – | – |
| 99 | 1 | 102 | 0 | 295 | – | – | Cc1ccsc1C(=O)N1CCC[C@H]1c1ccccc1-c1ccccc1Cl [ESC1002324] | – | – | 5.04 | 85.64 | – | – | – |
| 98 | 1 | 99 | 0 | 490 | – | 490 | COc1ccc(-c2ccccc2[C@H]2CCCN2C(=O)c2sccc2C)cn1 (single isomer, unassigned) [ESC1002162] | – | – | 6.843 | 83.498 | – | – | – |
| 99 | 1.2 | 97 | 0 | 575 | – | – | Cc1ccsc1C(=O)N1CCC[C@H]1c1ccccc1-c1ccc(C(F)(F)F)cc1 [ESC1002314] | – | – | 5.98 | 87.10 | – | – | – |
| 97 | 1.1 | 99 | 4 | 708 | – | – | COc1cccc(-c2ccccc2[C@@H]2CCCN2C(=O)c2sccc2C)c1OC [ESC1002326] | – | – | 5.05 | 88.92 | – | – | – |
